Values joined by “and” are separate entries in the source; they are usually repeats but may differ in a detail not shown here. Equal entries are not always repeated. Non-standard residues stand in square brackets, D forms with d. Residues, ends and D or L forms follow the SMILES beside them. pS = N[C@@H](COP(=O)(O)O)C(=O)O

For this experiment, the system named is Balb/c mice. Briefly: 31-day HDM-induced asthma model, airway response to methacholine (Flexivent). Type of experiment: in vivo, mouse. As to conditions: for Crs / Ers / Rrs: per mouse. The procedure: The aim of this study was to evaluate the effect of the P140 phosphopeptide administered systemically (intravenously) in a 31-day model of HDM-induced asthma in mice. The P140 phosphopeptide was solubilized in sterile water (Braun) and 10x concentrate sterile saline was added to adjust osmolarity to 300 mosm. Osmolarity was controlled with a micro osmometer (Löser, type 15) and validated (303 mosm). The P140 phosphopeptide was used in vivo at the dose of 4 mg/kg by intravenous (i.v.) routes. Control animals received equivalent volumes (2 ml/kg) of saline (Table 8).
Nine-week-old male Balb/c mice were sensitized by intranasal (i.n.) administration of HDM extract (Stallergenes): 1 μg in 25 μl saline on days 0, 1, 2, 3, 4, and 10 μg on days 14 and 21. Mice were challenged by i.n. administration of HDM (1 μg) and/or saline on days 28, 29 and 30. Mice were treated by i.v. injection (2 ml/kg) of P140 or solvent on day 25 (see FIG. 12).
Airway response to Methacholine (Flexivent®). On day 31, airway responses to PBS then methacholine were assessed using a forced oscillation technique (Flexivent®, SCIREQ, Montreal, Canada) as described (Daubeuf et al, Bioprotocol, 645, 2013). Mice were anesthetized with an intraperitoneal injection of xylasine (Rompun®; 1 mg/kg), followed fifteen minutes later by an intraperitoneal injection of pentobarbital sodium (3.64 mg/Kg). The trachea was exposed and an 18-gauge metal needle was inserted into the trachea. Airways were connected to a computer-controlled small animal ventilator, and quasi-sinusoidally ventilated with a tidal volume of 10 ml/Kg at a frequency of 150 breaths/min and a positive end-expiratory pressure of 2 cm H2O to achieve a mean respiratory volume close to that of spontaneous breathing. After baseline measurement, each mouse was challenged for 10 sec with an aerosol of PBS generated with an in-line nebulizer and administered directly through the ventilator. Then, aerosolized methacholine (MCh) at 50 mg/ml was administered for 10 sec. The effect of methacholine was calculated as the peak response, i.e. the mean of the three maximal values integrated for calculation of airway resistance (R, cm H20·s·mL^−1), elastance (E, cm H20·mL^−1) and compliance (C, mL·cm H20^−1).
All mice were sensitized to HDM on days 0, 1, 2, 3, 4, 14, 21, and challenged either with saline ([…]) or HDM (challenge with allergen). Results are presented as means±SEM. Differences between groups were tested for statistical significance using Student's t test for inflammatory cells and a two-way ANOVA followed by Bonferroni post-test for airway responses.

[1] abbreviates: chronic asthma, methacholine 50 mg/ml, P140 i.v. 4 mg/kg day 25, p<0.05.
The mark [2] stands for this setting: HDM + P140 (HDM-challenged), first unlabelled sub-column (presumably PBS/baseline).
Setting [3] is: HDM + P140 (HDM-challenged), second unlabelled sub-column (presumably MCh 50 mg/mL).
Where [4] appears, read: P140, saline-challenged (chronic asthma), first unlabelled sub-column (presumably PBS/baseline).
Where [5] appears, read: P140, saline-challenged (chronic asthma), second unlabelled sub-column (presumably MCh 50 mg/mL).

For the molecule `CC[C@H](C)[C@H](NC(=O)[C@H](Cc1ccccc1)NC(=O)[C@H](C)NC(=O)[C@H](Cc1ccc(O)cc1)NC(=O)CNC(=O)[C@H](CCCNC(=N)N)NC(=O)[C@@H]1CCCN1C(=O)[C@H](CCCCN)NC(=O)CNC(=O)[C@H](COP(=O)(O)O)NC(=O)[C@H](CCCNC(=N)N)NC(=O)[C@H](CCCCN)NC(=O)[C@H](CO)NC(=O)[C@H](Cc1ccc(O)cc1)NC(=O)[C@@H](NC(=O)[C@H](CCSC)NC(=O)[C@H](Cc1c[nH]cn1)NC(=O)[C@@H](NC(=O)[C@@H](N)CCCNC(=N)N)[C@@H](C)CC)C(C)C)C(=O)N[C@@H](CCC(=O)O)C(=O)N[C@@H](Cc1ccc(O)cc1)C(=O)O` [Compound P140] (H-RIHMVYSKR[pS]GKPRGYAFIEY-OH; N-terminus and C-terminus assumed), where the note is “allergen (HDM)-challenged mice, compared to the solvent group”, the “Airway resistance, elastance or compliance (in words)” value is “no effect”. Further, the “Airway resistance, change vs solvent group” value (chronic asthma, methacholine 50 mg/ml, P140 i.v. 4 mg/kg day 25, non-significant (n=5)) is reported as −42%. Further, the “Airway compliance, change vs solvent group” value under setting [1] is on record as “+115%”. The “Elastance, change vs solvent group” value under setting [1] is recorded as −65%. For the same molecule, the Crs is, setting by setting: under setting [2], 0.0554 mL/cmH2O and 0.0514 mL/cmH2O and 0.0528 mL/cmH2O and 0.0566 mL/cmH2O and 0.0492 mL/cmH2O and 0.0458 mL/cmH2O and 0.0552 mL/cmH2O and 0.0589 mL/cmH2O; under setting [3], 0.0146 mL/cmH2O and 0.0075 mL/cmH2O and 0.0062 mL/cmH2O and 0.0065 mL/cmH2O and 0.0101 mL/cmH2O and 0.0060 mL/cmH2O and 0.0138 mL/cmH2O and 0.0081 mL/cmH2O; under setting [4], 0.0545 mL/cmH2O and 0.0498 mL/cmH2O and 0.0569 mL/cmH2O and 0.0541 mL/cmH2O and 0.0650 mL/cmH2O; under setting [5], 0.0304 mL/cmH2O and 0.0132 mL/cmH2O and 0.0380 mL/cmH2O and 0.0238 mL/cmH2O and 0.0370 mL/cmH2O. The Ers is 18.0582 cmH2O/mL and 19.4433 cmH2O/mL and 18.9515 cmH2O/mL and 17.6781 cmH2O/mL and 20.3326 cmH2O/mL and 21.8367 cmH2O/mL and 18.1106 cmH2O/mL and 16.9723 cmH2O/mL under setting [2]; 79.8018 cmH2O/mL and 148.4985 cmH2O/mL and 188.1151 cmH2O/mL and 219.9720 cmH2O/mL and 125.7688 cmH2O/mL and 173.4582 cmH2O/mL and 72.6033 cmH2O/mL and 131.8035 cmH2O/mL under setting [3]; 18.3671 cmH2O/mL and 20.0811 cmH2O/mL and 17.5777 cmH2O/mL and 18.4893 cmH2O/mL and 15.3975 cmH2O/mL under setting [4]; 33.3720 cmH2O/mL and 84.9688 cmH2O/mL and 26.3200 cmH2O/mL and 42.4174 cmH2O/mL and 28.6047 cmH2O/mL under setting [5]. The Rrs is 0.6405 cmH2O.s/mL and 0.6092 cmH2O.s/mL and 0.7972 cmH2O.s/mL and 0.5185 cmH2O.s/mL and 0.6804 cmH2O.s/mL and 0.6365 cmH2O.s/mL and 0.4744 cmH2O.s/mL and 0.5456 cmH2O.s/mL under setting [2]; 5.6421 cmH2O.s/mL and 10.3886 cmH2O.s/mL and 11.9654 cmH2O.s/mL and 10.5419 cmH2O.s/mL and 8.8810 cmH2O.s/mL and 13.0087 cmH2O.s/mL and 7.0705 cmH2O.s/mL and 9.7688 cmH2O.s/mL under setting [3]; 0.5590 cmH2O.s/mL and 0.8945 cmH2O.s/mL and 0.5926 cmH2O.s/mL and 0.8074 cmH2O.s/mL and 0.4418 cmH2O.s/mL (P140, saline-challenged (chronic asthma)); 4.1067 cmH2O.s/mL and 9.4002 cmH2O.s/mL and 2.2229 cmH2O.s/mL and 4.0926 cmH2O.s/mL and 2.1844 cmH2O.s/mL under setting [5]. The “Baseline airway resistance, elastance and compliance after PBS inhalation (in words)” value (saline-challenged mice, i.v. 4 mg/kg day 25, compared to solvent-treated mice) is “no effect”.
